# Results from patent publication EP0840781B1, “METHODS AND DEVICES FOR THE REMOVAL OF PSORALENS FROM BLOOD PRODUCTS” (Cerus Corporation, priority 1995, dated 1996).
# Marks after values point to notes of the source that are not given here.
# Columns and labels:
# platelets [1] = experiment: Platelet aggregation (ADP and collagen, aggregometer); assay type: cell-based, human; details: for (%) Aggregation: T = test unit (150 µM S-59, 3 Joules/cm^2 UVA, RD 8 hours on day 1)
# Procedure: To measure the effects of the present compounds and methods of decontamination on platelet function using these four indicators, four samples were prepared for each compound tested, two control samples and two containing compound. […] These were each transferred under sterile conditions to 50 ml centrifuge tubes, then aliquots of each unit were transferred into a second set of 50 ml sterile centrifuge tubes. […] The samples were pipetted gently up and down to mix. […] Samples were treated in one of two different sized bags, having either 3 ml or 8 ml capacity. […] For each compound tested, two control samples without compound were prepared by again removing aliquots of platelet concentrate (17 ml if using an 8 ml bag, 4 ml if using a 3 ml bag) from the same one of the first set of 50 ml centrifuge tubes from which the compound sample was drawn, and dividing into Medibags, as before. […] Then all experimental and control Medibags were placed on a platelet shaker for storage for 5 days.
# platelets [2] = experiment: ATP content / ATP secretion of platelets; assay type: cell-based, human; details: T = test unit (150 µM S-59, 3 Joules/cm^2 UVA, RD 8 hours on day 1)
# Procedure: Samples were removed from the units after 24 hours and were analyzed for platelet count and pH. After 5 days, samples were taken and also analyzed for platelet count and pH, as well as ATP content and activation by GMP-140. Controls included a sample of PCD-treated PC without adsorbent (no-adsorbent control) and a sample of PC that was not treated. The results for each of the platelet function assays are present in Table G (the "*" In Table G indicates a contact time of three hours only). TABLE G
# (§1) For the evaluation of in vitro platelet function, platelet samples were withdrawn from both the control and test units before treatment and after treatment on days 2, 5, and 7. The following parameters were analyzed: pH, pO2, pCO2, bicarbonate concentration, platelet count, morphology, aggregation, platelet shape change, hypotonic shock response, lactate production, glucose consumption, ATP secretion, p-selectin expression, and microvesicle formation. Several of these assays, including pH, morphology score, platelet shape change, and hypotonic shock response, have been reported in the literature to correlate with in- vivo post-transfusion recovery and survival. The Student's paired t-test was used for statistical analysis.
# platelets [3] = experiment: Platelet morphology score; assay type: cell-based, human; details: T = test unit (150 µM S-59, 3 Joules/cm^2 UVA, RD 8 hours on day 1)
# Procedure: as §1
# platelet concentrate = experiment: pO2, pCO2 and bicarbonate concentration of platelet concentrate; assay type: cell-based, human; details: T = test unit (150 µM S-59, 3 Joules/cm^2 UVA, RD 8 hours on day 1)
# Procedure: In addition to the data summarized in Table E, measurements of pH, pO2, and pCO2 were taken over a five-day storage period. No significant differences between the treated and control units were observed. Finally, it should be noted that these experiments were performed with standard Amberlite™ resins (i.e., resins which were not treated by Supelco, Inc.).
# as §1
# platelets [4] = experiment: Microvesicle formation of platelets; assay type: cell-based, human; details: T = test unit (150 µM S-59, 3 Joules/cm^2 UVA, RD 8 hours on day 1)
# Procedure: as §1
# [5] = HPLC analysis of residual S-59 and photoproducts in PC after UVA and 8-hour treatment with RD containing Dowex XUS-43493; assay type: physicochemical
# Procedure: Briefly, the assay involved an initial sample preparation which lyses the platelets and solubilizes the S-59 and photoproducts. The supernatant from the sample preparation was then analyzed on a C-18 reverse phase column with a gradient of increasing methanol in KH2PO4 buffer. The major peaks were detected by optical absorbance. […] Samples of the treated PC were then taken and subjected to HPLC for detection of residual S-59 and S-59 photoproducts. Post-incubation levels of photoproducts D, E, and F (S-59) are presented in Table N; photoproducts A, B, C, and G were not detectable by HPLC. Levels of residual photoproducts are average values taken from six independent, photochemically- and RD-treated platelet units. […] The PC was assayed for unbound photoproducts using the HPLC assay discussed above, which quantifies the photoproducts present both within the platelets and in the plasma/PAS III mixture. […] In addition to assaying the complete PC, samples were centrifuged to remove the platelets so that unbound photoproducts in the plasma/PAS III could be analyzed separately. […] To evaluate the efficacy of the RD for reducing the concentration of S-59. platelet samples from the test unit were analyzed for S-59 content by HPLC. […] The concentration of S-59 before and after UVA illumination and the reduction in the concentration of residual S-59 following RD treatment were measured by HPLC analysis. […]
compound,measurement,setting,value
"Cc1oc2c(C)c3oc(=O)cc(C)c3cc2c1COCCN [Compound 2, 4'-(4-amino-2-oxa)butyl-4,5',8-trimethylpsoralen]",reduction in aggregation from the day 1 control,"platelets [1]; 100 µM compound, 5 Joules/cm^2, 5 days storage (FIG. 21B)",approximately 8%
same,(%) Aggregation,platelets [1]; Day 2,88±4%
same,(%) Aggregation,platelets [1]; Day 5,81±7%
same,(%) Aggregation,platelets [1]; Day 7,81±4%
same,ATP,platelets [2]; Day 2,1.0±0.1 Nmoles Per 10* Platelets
same,ATP,platelets [2]; Day 5,0.7±0.2 Nmoles Per 10* Platelets
same,ATP,platelets [2]; Day 7,0.6±0.2 Nmoles Per 10* Platelets
same,Morphology (Out Of 400),platelets [3]; Day 2,302±16
same,Morphology (Out Of 400),platelets [3]; Day 5,290±20
same,Morphology (Out Of 400),platelets [3]; Day 7,274±12
same,Bicarbonate,platelet concentrate; Day 2,6.3 ± 0.3 mM
same,pCO2,platelet concentrate; Day 2,29.2±3.8 mm Hg
same,pO2,platelet concentrate; Day 2,68.3±19.4 mm Hg
same,Bicarbonate,platelet concentrate; Day 5,4.8 ± 0.5 mM
same,pCO2,platelet concentrate; Day 5,23.7±3.5 mm Hg
same,pO2,platelet concentrate; Day 5,84.8±22.5 mm Hg
same,Bicarbonate,platelet concentrate; Day 7,4.2 ± 0.7 mM
same,pCO2,platelet concentrate; Day 7,20.7±2.4 mm Hg
same,pO2,platelet concentrate; Day 7,88.8±20.2 mm Hg
same,(%) Microvesicle Formation,platelets [4]; Day 2,0.9±0.2%
same,(%) Microvesicle Formation,platelets [4]; Day 5,0.8±0.2%
same,(%) Microvesicle Formation,platelets [4]; Day 7,1.7±1.7%
same,% Residual S- 59,"[5]; Post 3 Joule/cm^2 UVA Illumination, of the initial S-59 remained unreacted",20.5 ± 2.3%
same,µM S-59,"[5]; Pre-Treatment (0 Joule/cm^2), platelet concentrate, HPLC",145 ± 10 µM
